Entries after “also recorded” stand apart in the source; their conditions may differ. Where two headings read alike, the source gives them in different places. Bridge positions count the residues as written; N and C are the ends. Square brackets hold non-standard residues; d marks the D form. Peptide text beside a SMILES is read from it. pGlu = O=C1CC[C@@H](C(=O)O)N1
Experiments:
zebrafish αβδ nAChR [1] = type: cell-based, zebrafish (Danio rerio)
zebrafish αβδ nAChR [2] = type: cell-based, zebrafish (Danio rerio); remark: listed apart in the source

With CC[C@H](C)[C@@H]1NC(=O)[C@H](CC(C)C)NC(=O)[C@H](CCCNC(=N)N)NC(=O)[C@H](CC(=O)O)NC(=O)[C@H](CCCNC(=N)N)NC(=O)[C@H](Cc2ccccc2)NC(=O)[C@H](Cc2ccc(O)cc2)NC(=O)[C@H](CC(C)C)NC(=O)[C@@H]2CCCN2C(=O)[C@@H]2CSSC[C@@H](C(=O)O)NC(=O)[C@@H]3CSSC[C@H](NC(=O)[C@H](CCCCN)NC(=O)[C@@H]4CCC(=O)N4)C(=O)N[C@@H](CSSC[C@H](NC1=O)C(=O)N1CCC[C@H]1C(=O)N3)C(=O)N[C@@H](CO)C(=O)NCC(=O)NCC(=O)N[C@@H](CO)C(=O)N2 [αM-MIIIJ] ([pGlu]KCCSGGSCPLYFRDRLICPCC-OH; disulfide 3-21, 4-19, 9-22) the “affinity of αβδ relative to αβδε and αβδγ” value (zebrafish αβδ nAChR [1]) was “about a factor of two higher”, the koff (zebrafish αβδ nAChR [1]) was 0.0417 s⁻¹ and the “recovery of IACh on washout” value (zebrafish αβδ nAChR [1]) was “recovered almost completely within a minute”. For the same compound, the reversibility of block (zebrafish αβδ nAChR [1]) was “readily reversible”, the IC50 (zebrafish αβδ nAChR [1]; read-out: IC50) was 33 nM and the IC50 (zebrafish αβδ nAChR [1]; read-out: IC50 (range statement)) was about 50 nM. For the same compound, the “protection against α-BgTX block” value (zebrafish αβδ nAChR [2]) was “largely protected” and the “protection against α-EI block” value (zebrafish αβδ nAChR [2]) was “rapidly reversed upon toxin washout; also recorded: completely protected”.

From paper PMC7150935 (Toxins, 2020)
